Results on 5 compounds are retold here after ChEMBL document CHEMBL3286370, “Synthesis of triterpenoid triazine derivatives from allobetulone and betulonic acid with biological activities” (Bioorg Med Chem, 2014).

A short description of data set [1]: Cytotoxicity against HEL cells assessed as growth inhibition. The format is cell-based. Particulars: human.
The next data set deals with CCRF-CEM. In words: Cytostatic activity against human CEM cells after 72 hrs by Coulter counting analysis. The format is functional, cell-based.
The test system of data set [2] is Human betaherpesvirus 5. In words: Antiviral activity against Human cytomegalovirus AD169 assessed as reduction in viral plaque formation. As to conditions: Human betaherpesvirus 5, AD169. The format is functional, organism-based.
In a further data set the test system is HeLa. In words: Cytostatic activity against human HeLa cells after 72 hrs by Coulter counting analysis. The data set is classed as functional, cell-based.
Data set [3] deals with Human betaherpesvirus 5. In words: Antiviral activity against Human cytomegalovirus Davis assessed as reduction in viral plaque formation. The format is functional, organism-based. Particulars: Human betaherpesvirus 5, Davis.
A further data set concerns L1210. In words: Cytostatic activity against mouse L1210 cells after 48 hrs by Coulter counting analysis. The format is functional, cell-based. As to conditions: L1210, 48 h.
The nature of data set [4]: Cytotoxicity against HEL cells assessed as alteration in cellular morphology. Particulars: human. The format is cell-based.
The subject of a further data set is Human alphaherpesvirus 2. In words: Antiviral activity against Herpes simplex virus type 2 G assessed as reduction in virus-induced cytopathogenicity by cell-based assay. The format is functional, organism-based. Particulars: Human alphaherpesvirus 2, strain G. A general note: Protection from cytopathic effect is a common read-out in antiviral testing.
The subject of data set [5] is Human alphaherpesvirus 1. In words: Antiviral activity against thymidine kinase-deficient ACV-resistant Herpes simplex virus type 1 KOS assessed as reduction in virus-induced cytopathogenicity by cell-based assay. The format is functional, organism-based. As to conditions: Human alphaherpesvirus 1, KOS.
Data set [6] relates to Human alphaherpesvirus 1. In words: Antiviral activity against Herpes simplex virus type 1 KOS assessed as reduction in virus-induced cytopathogenicity by cell-based assay. The data set is classed as functional, organism-based. As to conditions: Human alphaherpesvirus 1, KOS.
Data set [7] has as its system Human alphaherpesvirus 3. As to the kind of experiment: Antiviral activity against thymidine kinase-deficient Varicella zoster virus 07-1 assessed as reduction in virus-induced cytopathogenicity by cell-based assay. The data set is classed as functional, organism-based. As to conditions: Human alphaherpesvirus 3, 07-1.
For data set [8], the system named is Human alphaherpesvirus 3. In words: Antiviral activity against Varicella zoster virus Oka assessed as reduction in virus-induced cytopathogenicity by cell-based assay. The data set is classed as functional, organism-based. Particulars: Human alphaherpesvirus 3, strain Oka vaccine.

Take `C=C(C)[C@@H]1CC[C@]2(C(=O)O)CC[C@]3(C)[C@H](CC[C@@H]4[C@@]5(C)Cc6cc7c(nc6C(C)(C)[C@@H]5CC[C@]43C)SCC7)[C@@H]12`: the 50% cytotoxic concentration (CC50) – broadly, the concentration at which the toxic effect on the cells reaches its halfway point – in data set [1] was determined as 74 µM. Further, the IC50 (in general, the concentration at which inhibition is half-maximal) in the data set with CCRF-CEM was found to be 3.8 µM; in the data set with HeLa it was 10 µM; in the data set with L1210 it was 7.8 µM. The half-maximal effective concentration (EC50) – broadly, the concentration that produces a half-maximal response – in the data set with Human betaherpesvirus 5 [2] stood at 8.6 µM; in the data set on Human betaherpesvirus 5 [3], 11 µM.
Take `C=C(C)[C@@H]1CC[C@]2(C(=O)O)CC[C@]3(C)[C@H](CC[C@@H]4[C@@]5(C)Cc6nnc(SC)nc6C(C)(C)[C@@H]5CC[C@]43C)[C@@H]12`: in [1], the CC50 was 45 µM. In addition, the IC50 in the data set with CCRF-CEM is 2.6 µM; in the data set with HeLa, 7.3 µM; with L1210, 7.3 µM. The results for the EC50 with Human betaherpesvirus 5 [2] and with Human betaherpesvirus 5 [3] were 1.8 µM and 2 µM, respectively. Also, the MCC in data set [4] stood at 20 µM.
Turning to `C=C(C)[C@@H]1CC[C@]2(C(=O)O)CC[C@]3(C)[C@H](CC[C@@H]4[C@@]5(C)Cc6n[nH]c(=S)nc6C(C)(C)[C@@H]5CC[C@]43C)[C@@H]12`, the CC50 in [1] was more than 100 µM. The IC50 with CCRF-CEM came out at 204 µM; in the data set with HeLa, 160 µM; in the data set on L1210 it was 196 µM. Also, the 50% effective concentration (EC50) with Human betaherpesvirus 5 [2] and in the data set with Human betaherpesvirus 5 [3] was not below 20 µM each time. Besides, the MCC in data set [4] is more than 100 µM.
As to `C=C(C)[C@@H]1CC[C@]2(C(=O)O)CC[C@]3(C)[C@H](CC[C@@H]4[C@@]5(C)CC(=O)C(=O)C(C)(C)[C@@H]5CC[C@]43C)[C@@H]12`, the EC50 amounted to 10 µM in the data set on Human alphaherpesvirus 2; 10 µM with Human alphaherpesvirus 1 [5]; 10 µM with Human alphaherpesvirus 1 [6]; 10 µM with Human alphaherpesvirus 3 [7]; 10 µM with Human alphaherpesvirus 3 [8]; 3 µM with Human betaherpesvirus 5 [2]. Moreover, the EC50 in the data set with Human betaherpesvirus 5 [3] stood at 2.9 µM. In addition, in data set [1], the CC50 worked out at 51 µM. For the same compound, the IC50 in the data set with CCRF-CEM is 13 µM; in the data set on HeLa it was 19 µM; in the data set on L1210 it was 12 µM. Besides, the MCC in data set [4] was determined as 20 µM.
For the compound `C#CCCSc1nnc2c(n1)C(C)(C)[C@@H]1CC[C@]3(C)[C@H](CC[C@@H]4[C@H]5[C@H](C(=C)C)CC[C@]5(C(=O)O)CC[C@]43C)[C@@]1(C)C2`, in data set [1], the CC50 came to 55 µM. In addition, the figures for the IC50 with CCRF-CEM, in the data set with HeLa and in the data set with L1210 were 1.2 µM, 9.1 µM and 4.9 µM, respectively. The EC50 with Human betaherpesvirus 5 [2] was more than 4 µM; in the data set on Human betaherpesvirus 5 [3], not below 4 µM. The MCC in data set [4] came out at 20 µM.
